Assays:
sugar beet = test: Test B preemergence/postemergence greenhouse plant response rating 0 to 10; format: in vivo, Beta vulgaris; details: for Plant response rating, Sugar beet: 0 to 10 scale
In short: (§1)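 Postemergence treatment of plants two to eighteen cm tall ran alongside preemergence treatment of planted seed, each using compound in a non-phytotoxic solvent.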

blackgrass = test: as above; format: in vivo, Alopecurus myosuroides; details: for Plant response rating, Blackgrass: 0 to 10 scale
In short: as §1

chickweed = test: as above; format: in vivo, Stellaria media; details: for Plant response rating, Chickweed: 0 to 10 scale
In short: as §1

velvetleaf = test: as above; format: in vivo, Abutilon theophrasti; details: for Plant response rating, Velvetleaf: 0 to 10 scale
In short: as §1

corn = test: as above; format: in vivo, Zea mays; details: for Plant response rating, Corn: 0 to 10 scale
In short: as §1

wild oat = test: Test C preemergence/postemergence greenhouse plant response rating 0 to 100; format: in vivo, Avena fatua; details: for Plant response rating, Wild oat: 125 g/ha, 0 to 100 scale
In short: (§2)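 Compounds in non-phytotoxic solvent went onto sandy loam before emergence (seeded one day earlier) or onto plants at the one-to-four leaf stage. Duck salad was treated via flood water (~2.5 cm, maintained) over silt loam.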

bedstraw = test: as above; format: in vivo, Galium aparine; details: for Plant response rating, Bedstraw: 125 g/ha, 0 to 100 scale
In short: as §2

barnyardgrass = test: Test B preemergence/postemergence greenhouse plant response rating 0 to 10; format: in vivo, Echinochloa crus-galli; details: for Plant response rating, Barnyardgrass: 0 to 10 scale
In short: as §1

rape = test: Test C preemergence/postemergence greenhouse plant response rating 0 to 100; format: in vivo, Brassica napus; details: for Plant response rating, Rape: 125 g/ha, 0 to 100 scale
In short: as §2

barley = test: Test B preemergence/postemergence greenhouse plant response rating 0 to 10; format: in vivo, Hordeum vulgare; details: for Plant response rating, Barley: 0 to 10 scale
In short: as §1

CCOCOc1cc(-c2nn3c(c2Cl)CCCC3)c(F)cc1Cl [Compound 59]
Plant response rating, Sugar beet (sugar beet; POSTEMERGENCE, Rate 50 g/ha): 10
Plant response rating, Sugar beet (sugar beet; PREEMERGENCE, Rate 50 g/ha): 9
Plant response rating (0 to 10 scale), Sugar beet (sugar beet; PREEMERGENCE, Rate 200 g/ha): 10
Plant response rating, Sugar beet (sugar beet; Rate 200 g/ha, POSTEMERGENCE): 10
Plant response rating, Blackgrass (blackgrass; POSTEMERGENCE, Rate 50 g/ha): 4
Plant response rating, Blackgrass (blackgrass; PREEMERGENCE, Rate 50 g/ha): 4
Plant response rating (0 to 10 scale), Blackgrass (blackgrass; PREEMERGENCE, Rate 200 g/ha): 5
Plant response rating, Blackgrass (blackgrass; Rate 200 g/ha, POSTEMERGENCE): 5
Plant response rating, Chickweed (chickweed; POSTEMERGENCE, Rate 50 g/ha): 6
Plant response rating, Chickweed (chickweed; PREEMERGENCE, Rate 50 g/ha): 4
Plant response rating (0 to 10 scale), Chickweed (chickweed; PREEMERGENCE, Rate 200 g/ha): 9
Plant response rating, Chickweed (chickweed; Rate 200 g/ha, POSTEMERGENCE): 8
Plant response rating, Velvetleaf (velvetleaf; POSTEMERGENCE, Rate 50 g/ha): 8
Plant response rating, Velvetleaf (velvetleaf; PREEMERGENCE, Rate 50 g/ha): 10
Plant response rating (0 to 10 scale), Velvetleaf (velvetleaf; PREEMERGENCE, Rate 200 g/ha): 10
Plant response rating, Velvetleaf (velvetleaf; Rate 200 g/ha, POSTEMERGENCE): 10
Plant response rating, Corn (corn; POSTEMERGENCE, Rate 50 g/ha): 4
Plant response rating, Corn (corn; PREEMERGENCE, Rate 50 g/ha): 1
Plant response rating (0 to 10 scale), Corn (corn; PREEMERGENCE, Rate 200 g/ha): 2
Plant response rating, Corn (corn; Rate 200 g/ha, POSTEMERGENCE): 5
Plant response rating, Wild oat (wild oat; POSTEMERGENCE): 60
Plant response rating (0 to 100), Wild oat (wild oat; POSTEMERGENCE, Rate 2 g/ha): 10
Plant response rating, Wild oat (wild oat; PREEMERGENCE): 30
Plant response rating (0 to 100), Wild oat (wild oat; PREEMERGENCE, Rate 2 g/ha): 0
Plant response rating (0 to 100), Wild oat (wild oat; Rate 8 g/ha, POSTEMERGENCE): 30
Plant response rating (0 to 100), Wild oat (wild oat; Rate 8 g/ha, PREEMERGENCE): 0
Plant response rating (0 to 100), Wild oat (wild oat; Rate 31 g/ha, POSTEMERGENCE): 40
Plant response rating (0 to 100), Wild oat (wild oat; Rate 31 g/ha, PREEMERGENCE): 0
Plant response rating, Bedstraw (bedstraw; POSTEMERGENCE): 100
Plant response rating (0 to 100), Bedstraw (bedstraw; POSTEMERGENCE, Rate 2 g/ha): 50
Plant response rating, Bedstraw (bedstraw; PREEMERGENCE): 70
Plant response rating (0 to 100), Bedstraw (bedstraw; PREEMERGENCE, Rate 2 g/ha): 0
Plant response rating (0 to 100), Bedstraw (bedstraw; Rate 8 g/ha, POSTEMERGENCE): 75
Plant response rating (0 to 100), Bedstraw (bedstraw; Rate 8 g/ha, PREEMERGENCE): 0
Plant response rating (0 to 100), Bedstraw (bedstraw; Rate 31 g/ha, POSTEMERGENCE): 100
Plant response rating (0 to 100), Bedstraw (bedstraw; Rate 31 g/ha, PREEMERGENCE): 50
Plant response rating, Barnyardgrass (barnyardgrass; POSTEMERGENCE, Rate 50 g/ha): 5
Plant response rating, Barnyardgrass (barnyardgrass; PREEMERGENCE, Rate 50 g/ha): 6
Plant response rating (0 to 10 scale), Barnyardgrass (barnyardgrass; PREEMERGENCE, Rate 200 g/ha): 8
Plant response rating, Barnyardgrass (barnyardgrass; Rate 200 g/ha, POSTEMERGENCE): 9
Plant response rating, Rape (rape; POSTEMERGENCE): 100
Plant response rating (0 to 100), Rape (rape; POSTEMERGENCE, Rate 2 g/ha): 20
Plant response rating, Rape (rape; PREEMERGENCE): 40
Plant response rating (0 to 100), Rape (rape; PREEMERGENCE, Rate 2 g/ha): 0
Plant response rating (0 to 100), Rape (rape; Rate 8 g/ha, POSTEMERGENCE): 40
Plant response rating (0 to 100), Rape (rape; Rate 8 g/ha, PREEMERGENCE): 0
Plant response rating (0 to 100), Rape (rape; Rate 31 g/ha, POSTEMERGENCE): 70
Plant response rating (0 to 100), Rape (rape; Rate 31 g/ha, PREEMERGENCE): 0
Plant response rating, Barley (barley; POSTEMERGENCE, Rate 50 g/ha): 4
Plant response rating, Barley (barley; PREEMERGENCE, Rate 50 g/ha): 2
Plant response rating (0 to 10 scale), Barley (barley; PREEMERGENCE, Rate 200 g/ha): 5
Plant response rating, Barley (barley; Rate 200 g/ha, POSTEMERGENCE): 4
